# Like-named read-outs stand apart in the source and are kept apart here. Marks after values point to notes of the source that are not given here.
# Experiments:
# A375 = assay: Cell survival assay (SRB), A375; format: cell-based; conditions: Homo sapiens, A-375, 72 h
# Protocol: (§1) 2.2. Cell Survival Assay: Standard Pharmacological Test Procedure. […] Compounds are incubated with cells for 3 days.
# KB-3-1 = assay: Cell survival assay (SRB), KB-3-1; format: cell-based, human
# How it was run: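 Cells were exposed in duplicate to serially diluted compound for 3 days, then fixed with 10% TCA (final) for 1 hr at 4 °C, stained 10 min with 0.04% SRB in 1% acetic acid, dissolved in 10 mM Trizma Base and read by absorbance. IC50 is the concentration inhibiting 50% of growth.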
# DLD-1 = assay: Cell survival assay (SRB), DLD-1; format: cell-based; conditions: Homo sapiens, DLD-1, 72 h, 3 days
# Excerpt: (§2) Cells lines with previously known mechanisms of resistance. […] Res. 8: 207-218,1996); KB-3-1 (parental derived from an epidermoid carcinoma), KB-8.5, KB-V1 (Akiyama S-I, Fojo A, Hanover J A, Pastan I, Gottesman M M. Isolation and genetic characterization of human KB cell lines resistant to multiple drugs. Somatic Cell Mol. Gen., 11: 117-126,1985; Shen D-W, Cardarelli C, Hwang J, Cornwell M, Richert N, Ishii S, Pastan I, Gottesman MM. […] J. Biol. Chem., 261: 7762-7770, 1986); and HL-60 (parental derived from human leukemia) and HL60/AR (McGrath T., Center M. S. Adriamycin resistance in HL60 cells in the absence of detectable P-glycoprotein. Biochem. Res. Commun., 145:1171-1176,1987); A549 and A549.EpoB40 (He L., Yang C.-P.H., Horwitz S. B. Mutations in p-tubulin map to domains involved in regulation of microtubule stability in epothilone-resistant cell lines. Molecular Cancer Therapeutics. 1: 3-10, 2001). HCT-15 human colon carcinoma and DLD-1 human colon carcinoma are obtained from American Tissue Culture Collection. The MX-1W carcinoma is a Wyeth variant orginally obtained as MX-1 breast carcinoma from the National Cancer Institute. Cell lines selected for resistance to Representative Example 129. KB-3-1 cells are selected for resistance to Example 129 by chronically exposing cells to increasing concentrations of Example 129.
# (§3) 2.2. Cell Survival Assay: Standard Pharmacological Test Procedure. The concentration of candidate inhibitor required to inhibit 50% of cell growth (IC50) is done according to previously reported methods. […] Compounds are serially diluted into media as 2× stocks and 100 μl added to cells in duplicate. Compounds are incubated with cells for 3 days. At the end of the incubation period the sulforhodamine B (SRB) assay, which measures protein content as an assessment of cell survival, is performed as described previously (Skehan P, Storeng R, Scudiero D, Monks A, McMahon J, Vistica D, Warren J T, Bokesch H, Kenney S, Boyd MR. New calorimetric cytotoxicity assay for anticancer-drug screening. J Natl Cancer Inst 1990 Jul 4;82(13):1107-12) with some modification as follows. For KB-3-1 cells with 20% FCS, media is gently decanted and replaced with 200 μl of serum-free media mixed with cold 50% TCA for a final concentration of 10% TCA. The plates are incubated for 1 hr at 4° C., followed by washing 5 times in cold distilled water, then air dried overnight. The fixed cells are stained for 10 min with 80 μl of 0.04% SRB solution prepared in 1% glacial acetic acid. Stain is discarded and plates washed 5 times in 1% glacial acetic acid, then air-dried until completely dry. Stained cell product is dissolved in 150 μl of 10 mM Trizma Base and placed on a shaker for 20 minutes until fully dissolved. Absorbance is read on a Victor V multi-label plate reader (Perkin Elmer, Gaithersburg, Md.).
# HT-29 = assay: Cell survival assay (SRB), HT-29; format: cell-based; conditions: Homo sapiens
# Protocol: as §1
# HCT-15 = assay: Cell survival assay (SRB), HCT-15; format: cell-based; conditions: Homo sapiens, HCT-15, 72 h, 3 days
# Excerpt: as §2, §3
# S1 = assay: Cell survival assay (SRB), S1; format: cell-based; conditions: Homo sapiens
# Excerpt: as §2, §3
# S1-M1-3.2 (MXR) = assay: Cell survival assay, S1-M1-3.2 (MXR); format: cell-based, human; conditions: for IC50: Homo sapiens, read-out: S1-M1-3.2 (MXR) IC50, nM (N)
# Excerpt: as §2, §3
# J. Cell Science,113: 2011-2021, 2000). It was unknown whether the hemiasterlin family of peptides interact with these drug pumps.
# MX-1W tumor = assay: Growth of tumors in nude mice, MX-1W xenograft; format: in vivo; conditions: for % T/C on day 7 / % T/C on day 14: MX-1W, days 1,5,9; for Activity in nude mice animal model (% T/C @ MTD on days 11-15) MX-1W: staged MX-1W xenograft, at MTD
# Excerpt: (§4) 2.4. Growth of Tumors in Nude Mice.
# HCT-116 = assay: Cell survival assay (SRB), HCT-116; format: cell-based; conditions: Homo sapiens
# Protocol: as §1
# BxPC3 = assay: Cell survival assay (SRB), BxPC3; format: cell-based; conditions: Homo sapiens, BXPC-3, 72 h
# Protocol: as §1
# KB-V1 (MDR1++) = assay: Cell survival assay (SRB), KB-V1 (MDR1++); conditions: for IC50: Homo sapiens
# A549.EpoB40 = format: cell-based; conditions: vs A549; below 1 = sensitive
# Excerpt: as §2
# as §3, with “Stained cell product is dissolved in 150 μl of 10 mM Trizma Base and placed on a shaker for 20 minutes until fully dissolved.” left out
# Lox = assay: Cell survival assay (SRB), Lox; format: cell-based; conditions: Homo sapiens, 72 h
# Protocol: as §1
# DLD-1 tumor = assay: Growth of tumors in nude mice, DLD-1 xenograft; format: in vivo; conditions: days 1,5,9
# Excerpt: as §4
compound,measurement,setting,value
"CC(=O)O[C@H]1C(=O)[C@@]2(C)[C@H]([C@H](OC(=O)c3ccccc3)[C@]3(O)C[C@H](OC(=O)[C@H](O)[C@@H](NC(=O)c4ccccc4)c4ccccc4)C(C)=C1C3(C)C)[C@]1(OC(C)=O)CO[C@@H]1C[C@@H]2O [paclitaxel, reference compound]",IC50,"A375; A375, melanoma, 3 days, SRB staining, read-out: IC50",14.1 ± 7.3 nM
same,IC50,"KB-3-1; Homo sapiens, KB 3-1, 72 h, KB-3-1, epidermoid, 3 days, SRB staining, read-out: IC50",3.9 ± 1.8 nM
same,IC50,"KB-3-1; Homo sapiens, KB 3-1, 72 h, KB-3-1, 3 days, SRB, + 5.0 uM MDR-1 inhibitor (heptanenitrile), mean of two experiments, read-out: IC50 + 5.0 uM MDR-1 inhibitor",2.1 nM
same,IC50,"KB-3-1; Homo sapiens, KB 3-1, 72 h, KB-3-1, 3 days, SRB, vehicle (DMSO), no MDR-1 inhibitor, mean of two experiments, read-out: IC50",2.2 nM
same,IC50,"KB-3-1; Homo sapiens, KB 3-1, 72 h, amount of drug needed to kill 50% of cells after three days continuous exposure, Table 11, read-out: IC50 in parental cell line KB-3-1",3.9 nM
same,IC50,"KB-3-1; Homo sapiens, KB 3-1, KB-3-1, Table 6, read-out: KB-3-1 IC50",2.74 ± 0.39 nM
same,IC50,"KB-3-1; Homo sapiens, KB 3-1, KB-3-1 parental, Table 3, read-out: KB-3-1 IC50, nM (N)",3.9 ± 1.8 nM
same,IC50,"KB-3-1; Homo sapiens, KB 3-1, KB-3-1 parental, Table 8, read-out: KB-3-1 IC50",2.66 ± 0.92 nM
same,IC50,"DLD-1; DLD-1, colon, SRB staining, read-out: IC50",30.8 ± 12.7 nM
same,IC50,"DLD-1; DLD-1, SRB, + 5.0 uM MDR-1 inhibitor (heptanenitrile of Table 2), read-out: IC50 + 5.0 uM MDR-1 inhibitor",3.8 nM
same,IC50,"DLD-1; DLD-1, SRB, vehicle control (DMSO), no MDR-1 inhibitor, read-out: IC50",21.8 nM
same,IC50,"HT-29; 72 h, HT-29, colon, 3 days, SRB staining, read-out: IC50",6.1 nM
same,IC50,"HCT-15; HCT-15, colon, SRB staining, read-out: IC50",438 ± 248 nM
same,IC50,"HCT-15; HCT-15, SRB, + 5.0 uM MDR-1 inhibitor (heptanenitrile of Table 2), read-out: IC50 + 5.0 uM MDR-1 inhibitor",5 nM
same,IC50,"HCT-15; HCT-15, SRB, vehicle control (DMSO), no MDR-1 inhibitor, read-out: IC50",479 nM
same,IC50,"S1; 72 h, S1, colon, 3 days, SRB staining, read-out: IC50",92 ± 100 nM
same,IC50,"S1; S1 parental, Table 5, read-out: S1 IC50, nM (N)",92 ± 100 nM
same,IC50,"S1-M1-3.2 (MXR); S1-M1-3.2, MXR over-expression, Table 5",108 ± 88 nM
same,% T/C on day 7,MX-1W tumor; paclitaxel 60 mg/kg IV,76%
same,% T/C on day 14,MX-1W tumor; paclitaxel 60 mg/kg IV,77%
same,Activity in nude mice animal model (% T/C @ MTD on days 11-15) MX-1W,MX-1W tumor,73%
same,IC50,"HCT-116; 72 h, HCT-116, colon, 3 days, SRB staining, read-out: IC50",4.5 nM
same,IC50,"BxPC3; BxPC3, pancreatic, 3 days, SRB staining, read-out: IC50",10.8 nM
same,IC50,"KB-V1 (MDR1++); 72 h, KB-V1, 3 days, SRB, vehicle (DMSO), no MDR-1 inhibitor, mean of two experiments",> 3000 nM
same,IC50,"KB-V1 (MDR1++); 72 h, read-out: IC50 + 5.0 uM MDR-1 inhibitor, KB-V1, 3 days, SRB, + 5.0 uM MDR-1 inhibitor (heptanenitrile), mean of two experiments",15 nM
same,IC50,"KB-V1 (MDR1++); read-out: KB-V1 (MDR1++) IC50, nM (N), KB-V1, high MDR1 expression, Table 3",5480 ± 2780 nM
same,resistance of A549.EpoB40 cells,A549.EpoB40,13 fold
same,IC50,"Lox; Lox, melanoma, 3 days, SRB staining, read-out: IC50",17.3 ± 5.6 nM
same,% T/C on day 7,DLD-1 tumor; paclitaxel 60 mg/kg IV,71%
same,% T/C on day 14,DLD-1 tumor; paclitaxel 60 mg/kg IV,73%
"CN[C@H](C(=O)N[C@H](C(=O)N(C)[C@H](/C=C(\C)C(=O)O)C(C)C)C(C)(C)C)C(C)(C)c1ccccc1 [Example 129, N,β,β-trimethyl-L-phenylalanyl-N^1-[(1S,2E)-3-carboxy-1-isopropylbut-2-enyl]-N^1,3-dimethyl-L-valinamide]",IC50,A375,1.1 ± 0.8 nM
same,IC50,KB-3-1,1.2 nM
same,IC50,"KB-3-1; Homo sapiens, KB 3-1",~1 nM
same,IC50,"KB-3-1; Homo sapiens, KB 3-1, 72 h",0.96 nM
same,IC50,"KB-3-1; Homo sapiens, KB 3-1, 72 h, read-out: IC50 + 5.0 uM MDR-1 inhibitor",0.9 nM
same,IC50,"KB-3-1; Homo sapiens, KB 3-1, 72 h, read-out: IC50 in parental cell line KB-3-1",1 nM
same,IC50,"KB-3-1; Homo sapiens, KB 3-1, read-out: KB-3-1 IC50 (nM)",0.612 ± 0.023 nM
same,IC50,"KB-3-1; Homo sapiens, KB 3-1, read-out: KB-3-1 IC50, nM",0.53 ± 0.05 nM
same,IC50,"KB-3-1; Homo sapiens, KB 3-1, read-out: KB-3-1 IC50, nM (N)",0.96 nM
same,IC50,"DLD-1; DLD-1, colon, SRB staining",1.1 ± 0.4 nM
same,IC50,"DLD-1; DLD-1, SRB, vehicle control (DMSO), no MDR-1 inhibitor",1.2 nM
same,IC50,"DLD-1; read-out: IC50 + 5.0 uM MDR-1 inhibitor, DLD-1, SRB, + 5.0 uM MDR-1 inhibitor (heptanenitrile of Table 2)",1.1 nM
same,IC50,"HT-29; HT-29, 72 h",1.6 nM
same,IC50,"HCT-15; HCT-15, colon, SRB staining",4.2 ± 2.5 nM
same,IC50,"HCT-15; HCT-15, SRB, vehicle control (DMSO), no MDR-1 inhibitor",2.2 nM
same,IC50,"HCT-15; read-out: IC50 + 5.0 uM MDR-1 inhibitor, HCT-15, SRB, + 5.0 uM MDR-1 inhibitor (heptanenitrile of Table 2)",0.5 nM
same,IC50,S1; 72 h,3.7 ± 2 nM
same,IC50,"S1; read-out: S1 IC50, nM (N)",3.7 ± 2 nM
same,IC50,S1-M1-3.2 (MXR),4.8 ± 2.1 nM
same,"RR, relative resistance",S1-M1-3.2 (MXR); IC50 S1-M1-3.2 / IC50 S1,1.3
same,% T/C on day 7,MX-1W tumor; Example 129 1.6 mg/kg IV,14** %
same,% T/C on day 14,MX-1W tumor; Example 129 1.6 mg/kg IV,3** %
same,effect on growth of MX-1W tumor,MX-1W tumor; orally administered,inhibited the growth
same,Activity in nude mice animal model (% T/C @ MTD on days 11-15) MX-1W,MX-1W tumor,6%
same,IC50,"HCT-116; HCT-116, 72 h",0.7 ± 0.2 nM
same,IC50,BxPC3,0.7 nM
same,"RR, relative resistance",KB-V1 (MDR1++),81
same,Ratio KBV1/KB,KB-V1 (MDR1++),80.6
same,resistance of KB-V1 cells,KB-V1 (MDR1++),81 fold
same,IC50,KB-V1 (MDR1++); 72 h,57 nM
same,IC50,"KB-V1 (MDR1++); 72 h, read-out: IC50 + 5.0 uM MDR-1 inhibitor",1.3 nM
same,IC50,"KB-V1 (MDR1++); read-out: KB-V1 (MDR1++) IC50, nM (N)",77.4 nM
same,resistance of A549.EpoB40 cells,A549.EpoB40,0.6 fold
same,IC50,Lox; LOX,1.4 ± 0.6 nM
same,% T/C on day 7,DLD-1 tumor; Example 129 1.6 mg/kg IV,22** %
same,% T/C on day 14,DLD-1 tumor; Example 129 1.6 mg/kg IV,20** %
same,% T/C on day 21,DLD-1 tumor; Example 129 1.6 mg/kg IV,44%

# Reference: patent publication US20040121965A1, “Method of treating resistant tumors” (Wyeth Holdings Corporation, priority 2002, published 2004)
